Test system: Liver cancer cells, HepG2
Experiment: Live cell imaging uptake, liver cancer cells
Type: cell-based, human
Settings: FIG. 23A-23C
Experimental: Cancer cells (e.g. HepG2 liver cancer cells) are seeded onto glass bottom microwell dishes (MatTek Corporation). Live cells at defined zooms (63×, 20×) are acquired using Zeiss Observer Z1 widefield microscope, equipped with atmospheric/temperature-controlled chamber and motorized stage for multi-positional acquisition. The incubation is performed in an enclosed live cell imaging system purged with 0.1% 02 and 5% CO2 (premixed). Cells are exposed to (1) Hb-5FU-alkyl(non-cleavable)-FL conjugate, labeled with one fluorescent dye and (2) Hb-5Fu-Dan-TAM conjugate, labeled with two fluorescent dyes; for 15 min prior to the acquisition of images every 3 min for a period of 2 h. Images are deconvolved and compacted into time-lapse movies using the MetaMorph software (Molecular Device).

For “fluorescent labeled hemoglobin: hemoglobin linked to one or more molecules of fluorescein (fluorescein 6-carboxysuccinimidyl ester, F-6-NHS)”, the “entry into liver cancer cells (fluorescent signal under microscope)” value was “can also enter into the cancer cells” and the “entry into liver cancer cells (fluorescent signal under microscope)” value (listed as fluorescent labeled modified hemoglobin) was “can enter into liver cancer cells successfully”.
